Values after ≈ are worked out from the molar mass of the structure shown. Values joined by “and” are separate entries in the source; they are usually repeats but may differ in a detail not shown here. Equal entries are not always repeated. “Also recorded” adds a separate entry of the source. Where two headings read alike, the source gives them in different places.
How the values were obtained:
[1] = target: T1, Humanspeichelamylase (Homo sapiens, UniProt P0DUB6); assay: Amylase activity assay in microtiter plates (dye-labelled starch substrate), commercial enzyme; type: biochemical; settings: for Hemmung der Enzymaktivität: result in words
T1 construct: purchased Sigma
T1 sequence (P0DUB6 16-511): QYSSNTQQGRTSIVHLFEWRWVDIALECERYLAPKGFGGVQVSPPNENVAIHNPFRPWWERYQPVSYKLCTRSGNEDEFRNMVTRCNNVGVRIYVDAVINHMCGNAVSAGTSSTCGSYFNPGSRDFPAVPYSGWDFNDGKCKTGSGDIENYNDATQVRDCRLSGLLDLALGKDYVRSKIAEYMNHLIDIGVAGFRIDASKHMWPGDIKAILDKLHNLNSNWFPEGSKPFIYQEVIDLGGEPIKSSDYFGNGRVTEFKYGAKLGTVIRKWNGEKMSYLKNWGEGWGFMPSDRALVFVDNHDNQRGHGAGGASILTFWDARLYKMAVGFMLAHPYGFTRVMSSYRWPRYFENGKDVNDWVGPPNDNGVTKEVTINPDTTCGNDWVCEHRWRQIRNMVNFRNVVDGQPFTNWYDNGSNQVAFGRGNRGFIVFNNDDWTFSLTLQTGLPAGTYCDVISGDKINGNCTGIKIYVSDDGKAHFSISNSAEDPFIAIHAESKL
Description: (§1) Diese Methode basiert auf folgendem Prinzip:

[2] = system: Amylase aus Bacillus sp.; assay: as above; type: biochemical; settings: for Hemmung der Enzymaktivität: result in words
Description: as §1

[3] = system: Amylasen von mit F. graminearum infizierten Pflanzen; type: biochemical, Fusarium graminearum; settings: for Hemmung der Enzymaktivität: result in words
[4] = system: Fusarium graminearum; assay: microbe, parasite or virus in culture; type: cell-based; settings: for Einfluss auf das Wachstum von Fusarium graminearum: Saccharose as sole C source, up to 14 days
[5] = system: Fusarium graminearum; type: in vivo
[6] = system: Weizenpflanzen; settings: in vivo
[7] = system: Blumeria graminis f. sp. tritici; assay: Powdery mildew rating on sprayed wheat plants (MOLL et al. 1996); type: in vivo; settings: 7 dpi; spray treatment at 3-leaf stage; AI-1 and AI-2 1 mg/ml, CI 100 µg/ml; Kontrolle 60
Description: Nach einer Sprühbehandlung der Weizenpflanzen im 3-Blatt-Stadium und anschließender Inokulation (nach Abtrocknen) mit Mehltau Blumeria graminis f. sp. tritici sind eindeutige Hemmeffekte zu erkennen (Figur 25-27). Eine Bonitur nach MOLL et al. (1996) ergab für den Amylase-Inhibitor AI-1 eine Befallsreduktion von 60% auf 7%, für den Amylase-Inhibitor AI-2 auf 1 % und für den Cellulase-Inhibitor CI auf 10% (Tabelle 3). Tab. 3: Bonitur des Mehltaubefalls (Blumeria graminis f. sp. tritici) nach MOLL et al. (1996) 7 dpi.

[8] = target: Amylase aus Aspergillus oryzae (Aspergillus oryzae, UniProt P0C1B3); assay: Amylase activity assay in microtiter plates (dye-labelled starch substrate), commercial enzymes; type: biochemical; settings: both Aspergillus amylases (35 U/mg Fluka, 200 U/mg Sigma); result in words
Description: as §1

[9] = system: Fusarium graminearum; type: in vivo; settings: for Fusarium Protein Equivalent (µg/g), Mittelwert: above-ground parts; for Fusarium Protein Equivalent (µg/g), Mittelwert / Fusarium Protein Equivalent (µg /g), Mean: 2 weeks after sowing; for Aussehen der behandelten, infizierten Pflanzen (Fotos): folded filter, very high infection pressure; for Reduktion des Befalls der Wurzeln (ELISA): roots of infected wheat seedlings on folded filter; for Fusarium Protein Equivalent (µg /g), Mean: roots
[10] = system: Amylasen aus Kulturfiltrat (Strohextrakt) von in vitro angezogenem Fusarium graminearum; type: biochemical; settings: for Hemmung der Enzymaktivität: result in words
[11] = system: Erbsen; assay: Plant tolerance: germination of peas after imbibition in inhibitor solution; type: in vivo; settings: imbibition in a solution of 1 mg/ml; result in words
[12] = target: T2, Cellobiohydrolase I (CBH I) (Trichoderma reesei, UniProt P62694); settings: result in words; cited from earlier work
T2 sequence (P62694 18-513): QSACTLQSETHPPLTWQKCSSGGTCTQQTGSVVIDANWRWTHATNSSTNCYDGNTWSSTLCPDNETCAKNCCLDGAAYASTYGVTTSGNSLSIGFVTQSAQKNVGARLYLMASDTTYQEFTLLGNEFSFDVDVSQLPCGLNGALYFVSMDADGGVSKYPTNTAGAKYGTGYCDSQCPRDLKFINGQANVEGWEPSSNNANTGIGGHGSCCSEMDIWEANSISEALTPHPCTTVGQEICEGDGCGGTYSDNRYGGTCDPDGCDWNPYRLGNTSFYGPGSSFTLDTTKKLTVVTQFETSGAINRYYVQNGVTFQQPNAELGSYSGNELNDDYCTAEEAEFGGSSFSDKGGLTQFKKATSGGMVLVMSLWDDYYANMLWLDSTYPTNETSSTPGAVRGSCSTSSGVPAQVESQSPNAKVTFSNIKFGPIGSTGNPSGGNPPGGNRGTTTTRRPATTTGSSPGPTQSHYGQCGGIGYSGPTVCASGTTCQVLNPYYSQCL

[13] = target: T3, Endoglukanase II (EG II) (Trichoderma reesei, UniProt P07982); settings: result in words; cited from earlier work
T3 sequence (P07982 22-418): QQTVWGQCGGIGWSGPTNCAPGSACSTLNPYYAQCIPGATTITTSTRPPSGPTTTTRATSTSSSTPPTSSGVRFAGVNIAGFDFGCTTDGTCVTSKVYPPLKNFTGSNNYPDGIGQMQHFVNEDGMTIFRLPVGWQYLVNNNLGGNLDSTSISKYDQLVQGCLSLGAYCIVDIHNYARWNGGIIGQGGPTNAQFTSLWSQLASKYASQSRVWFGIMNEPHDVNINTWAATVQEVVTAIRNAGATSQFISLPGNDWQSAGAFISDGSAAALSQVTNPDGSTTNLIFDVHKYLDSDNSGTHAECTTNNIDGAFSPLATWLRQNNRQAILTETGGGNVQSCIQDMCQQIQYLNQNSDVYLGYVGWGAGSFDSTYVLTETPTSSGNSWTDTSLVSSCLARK

[14] = infected with F.g. + inhibitor, infected control 341,44
[15] = infected with F.g. + inhibitor, infected control 1261,2
[16] = Stärke as sole C source, 14 days

Compound: CC1OC(OC2C(CO)OC(OC3C(CO)OC(O)C(O)C3O)C(O)C2O)C(O)C(O)C1NC1C=C(CO)C(O)C(O)C1O (stereo not drawn) [AI-1, Acarbose]
- IC100 ([1]; Humanamylase (500 U/mg, Sigma), read-out: Konzentration, bei der die Amylase vollständig / total gehemmt wird): 250 µg/mL
- Hemmung der Enzymaktivität ([2]; 0,5 mg/ml): ebenfalls gehemmt, jedoch durch diese Konzentration nicht total ausschaltet
- Amylasen gehemmt bis auf ([3]; 0,5 mg/ml, not totally switched off): 69,2%
- Hemmung der Enzymaktivität [3]: starke, wenn auch nicht vollständige Hemmung
- MIC ([4]; Fusarium graminearum, 336 h, read-out: Konzentration, bei der das Wachstum total gehemmt wird): 30 µg/mL (≈ 46.5 µM)
- inhibition of growth at 15 µg/mL ([4]; Fusarium graminearum, read-out: Hemmung des Wachstums): ~50%
- Einfluss auf das Wachstum von Fusarium graminearum ([4]; result in words): keinen negativen Einfluss; also recorded: sogar gefördert
- Faktor effektiver als der Cellulase-Inhibitor gegenüber Stärke als Substrat ([4]; total inhibition, 30 µg/ml versus 100 µg/ml): 3
- Reduktion der Pilzmenge (ELISA) ([5]; Versuch 1, 4 weeks, seed dip treatment): 66%
- Hemmung des Pilzwachstums (ELISA) ([5]; Versuch 1, 4 weeks, seed dip treatment, result in words): vollständige Hemmung
- Hemmung des Pilzwachstums / Reduktion der Pilzmenge (ELISA) ([5]; Versuch 2, 4 weeks, seed dip treatment): 60% and 85%
- Blattfrischgewicht infizierter Pflanzen ([5]; soil substrate, greenhouse, 4 weeks, AI-1 1 mg /ml seed treatment, result in words): hebt diese Frischgewichtsdepression auf; also recorded: gleiche Frischgewicht wie die nicht infizierte Kontrolle
- Hemmung von Keimung und Pflanzenwachstum [6]: weder der Amylase-Inhibitor AI-1 noch der amylasehemmende Wirkung zeigende Cellulose-Inhibitor die Keimung und das Pflanzenwachstum hemmten
- Befall (%) [7]: 7%
- Hemmung der Enzymaktivität [8]: nicht oder nur sehr schwach beeinflusst
- Fusarium Protein Equivalent (µg/g), Mittelwert [9, 14]: 25,2 µg/g
- Fusarium Protein Equivalent (µg/g), Mittelwert ([9]; not infected (K) + inhibitor): 2,2 µg/g
- Aussehen der behandelten, infizierten Pflanzen (Fotos) ([9]; result in words): fast normal aussehen
- Effekt auf der Basis des Frischgewichtes ([9]; infected wheat seedlings on folded filter, 2 weeks, result in words): starke befallreduzierende Effekt; also recorded: positive Effekt
- Reduktion des Befalls der Wurzeln (ELISA) ([9]; 2 weeks): 66% and 61%
- Fusarium Protein Equivalent (µg /g), Mean [9, 15]: 554,8 µg /g
- Fusarium Protein Equivalent (µg /g), Mean ([9]; not infected (K) + inhibitor): 6,3 µg /g
- Konzentration, bei der die Amylasen total gehemmt wurden [10]: 0,06 mg/ml
- Amylase-Aktivität reduziert bis auf ([10]; 5 µg/ml, remaining activity): 28%

Compound: OCCN1C[C@H](O)[C@@H](O)[C@H](O)[C@H]1CO [AI-2, Miglitol]
- Hemmung der Enzymaktivität [1]: weder die Humanamylase noch die verwendeten käuflichen Amylasen aus Bakterien bzw. Pilzen hemmt; also recorded: nicht zu hemmen vermochte
- Hemmung der Enzymaktivität [2]: weder die Humanamylase noch die verwendeten käuflichen Amylasen aus Bakterien bzw. Pilzen hemmt; also recorded: nicht zu hemmen vermochte
- Hemmung der Enzymaktivität [3]: wirkungslos; also recorded: keine Wirkung; also recorded: konnte weder die im Handel erhältlichen Amylasen bzw. Cellulasen der verschiedenen Mikroorganismen noch die von Fusarium graminearum in vitro oder in der Pflanze gebildeten Amylasen inhibieren
- Einfluss auf das Wachstum von Fusarium graminearum ([4]; result in words): keinen Einfluss
- Einfluss auf das Pilzwachstum ([4]; Stärke as sole C source, result in words): keinen Einfluss
- Einfluss auf das Wachstum des Pilzes in vitro ([4]; result in words): keinerlei hemmenden Einfluss
- Einfluss auf das ausgewachsene Blatt [6]: keinen Einfluss auf das ausgewachsene Blatt
- Hemmung der Keimung [6]: vollständig
- Hemmung der Keimung der Weizenpflanzen [6]: so stark hemmte, dass sich Jungpflanzen nicht entwickeln konnten
- Befall (%) [7]: 1%
- Hemmung der Keimung [11]: vollständig
- Hemmung der Enzymaktivität [8]: weder die Humanamylase noch die verwendeten käuflichen Amylasen aus Bakterien bzw. Pilzen hemmt; also recorded: nicht zu hemmen vermochte
- Fusarium Protein Equivalent (µg /g), Mean [9, 15]: 813,0 µg /g
- Fusarium Protein Equivalent (µg /g), Mean ([9]; not infected (K) + inhibitor): 7,6 µg /g
- Hemmung der Enzymaktivität [10]: konnte weder die im Handel erhältlichen Amylasen bzw. Cellulasen der verschiedenen Mikroorganismen noch die von Fusarium graminearum in vitro oder in der Pflanze gebildeten Amylasen inhibieren

Compound: Na2PdCl6 · 4 H2O [CI]
- Konzentration, bei der die Amylase vollständig / total gehemmt wird ([1]; Humanamylase (500 U/mg, Sigma)): 25 µg/mL
- Hemmung der Enzymaktivität [1]: bei höherer Konzentration hemmte
- Konzentration, bei der die Amylase total gehemmt wird ([2]; Bacillus-Amylase): 100 µg/mL
- Hemmung der Enzymaktivität [2]: bei höherer Konzentration hemmte
- Hemmung der Enzymaktivität [3]: nicht bzw. nur unwesentlich hemmt
- Hemmung der Enzymaktivität ([3]; listed as Cellulase-Inhibitor): unbeeinflusst blieben
- Inhibition [12]: in starkem Maße zu inhibieren
- Hemmung des Pilzwachstums ([4]; Cellulose as C source, 12,5 µg/ml, 14 days, result in words): deutliche Wachstumsdepression
- Wachstumsdepression ([4]; Cellulose as C source, ab 50 bis 100 µg/mL, 14 days): 100%
- Konzentration, bei der das Wachstum total gehemmt ist ([4]; Cellulose as sole C source): 50 µg/mL
- Wachstumsrate reduziert um ([4]; Cellulose as sole C source, 12,5 µg/ml): ca. 50%
- Einfluss auf das Wachstum von Fusarium graminearum ([4]; result in words): nicht gehemmt
- Einfluss auf das Wachstum ([4]; Stärke as sole C source, 6,5-12,5 µg/ml, result in words): verifizierbare Wachstumsförderung
- Konzentration, ab der das Wachstum partiell gehemmt wird [4, 16]: ≥ 75 µg/mL
- Konzentration, bei der das Wachstum total gehemmt wird [4, 16]: ≥ 100 µg/mL
- Konzentration, bei der das Wachstum total gehemmt wird ([4]; Stärke as sole C source, 14 days, listed as Cellulase-Inhibitor): 100 µg/mL
- Inhibition [13]: in starkem Maße zu inhibieren
- Hemmung des Pilzwachstums ([5]; soil substrate, greenhouse, 4 weeks, both trials, CI 100µg /ml seed treatment, result in words): nicht hemmt; also recorded: keinerlei Effekt
- Hemmung von Keimung und Pflanzenwachstum [6]: weder der Amylase-Inhibitor AI-1 noch der amylasehemmende Wirkung zeigende Cellulose-Inhibitor die Keimung und das Pflanzenwachstum hemmten
- negativer Effekt auf das Pflanzenwachstum [6]: keinerlei negativen Effekt auf das Pflanzenwachstum
- Befall (%) [7]: 10%
- Hemmung der Enzymaktivität [8]: unbeeinflusst blieben
- Fusarium Protein Equivalent (µg/g), Mittelwert [9, 14]: 66,34 µg/g
- Fusarium Protein Equivalent (µg/g), Mittelwert ([9]; not infected (K) + inhibitor): 0,04 µg/g
- Aussehen der behandelten, infizierten Pflanzen (Fotos) ([9]; result in words): grüner aus, sind aber im Wuchs doch deutlich reduziert
- Reduktion des Befalls der Wurzeln (ELISA) ([9]; 2 weeks): 51%
- Fusarium Protein Equivalent (µg /g), Mean [9, 15]: 618,9 µg /g
- Fusarium Protein Equivalent (µg /g), Mean ([9]; not infected (K) + inhibitor): 49,0 µg /g
- Hemmung der Enzymaktivität [10]: nicht bzw. nur unwesentlich hemmt
- Hemmung der Enzymaktivität ([10]; listed as Cellulase-Inhibitor): bei höheren Konzentrationen auch die Amylasen des Fusarium-Kulturfiltrates hemmt; also recorded: unbeeinflusst blieben
